Test results: ChEMBL document CHEMBL4024785 (J Med Chem, 2018)

Assays:
Carbonic anhydrase 9 = Carbonic anhydrase 9 (Homo sapiens, UniProt Q16790)
Description: Inhibition of recombinant human carbonic anhydrase 9 expressed in Escherichia coli L21-GOLD (DE3) incubated for 10 mins prior to testing by stopped-flow CO2 hydration assay

Carbonic anhydrase 1 = Carbonic anhydrase 1 (Homo sapiens, UniProt P00915)
Description: Inhibition of recombinant human carbonic anhydrase 1 expressed in Escherichia coli L21-GOLD (DE3) incubated for 10 mins prior to testing by stopped-flow CO2 hydration assay

Carbonic anhydrase 12 = Carbonic anhydrase 12 (Homo sapiens, UniProt O43570)
Chain of Carbonic anhydrase 12 (O43570 whole entry): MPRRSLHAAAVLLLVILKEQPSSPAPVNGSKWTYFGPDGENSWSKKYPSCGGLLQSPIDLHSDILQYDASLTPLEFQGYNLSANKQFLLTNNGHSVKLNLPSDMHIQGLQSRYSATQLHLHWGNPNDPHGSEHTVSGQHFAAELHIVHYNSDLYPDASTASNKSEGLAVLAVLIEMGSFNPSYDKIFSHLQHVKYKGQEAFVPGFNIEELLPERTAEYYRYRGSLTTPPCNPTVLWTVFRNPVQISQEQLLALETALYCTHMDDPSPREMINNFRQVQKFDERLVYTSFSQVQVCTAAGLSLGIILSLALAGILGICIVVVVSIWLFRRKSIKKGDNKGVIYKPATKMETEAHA
Description: Inhibition of recombinant human carbonic anhydrase 12 expressed in Escherichia coli L21-GOLD (DE3) incubated for 10 mins prior to testing by stopped-flow CO2 hydration assay

Chain of Carbonic anhydrase 1 (P00915 whole entry): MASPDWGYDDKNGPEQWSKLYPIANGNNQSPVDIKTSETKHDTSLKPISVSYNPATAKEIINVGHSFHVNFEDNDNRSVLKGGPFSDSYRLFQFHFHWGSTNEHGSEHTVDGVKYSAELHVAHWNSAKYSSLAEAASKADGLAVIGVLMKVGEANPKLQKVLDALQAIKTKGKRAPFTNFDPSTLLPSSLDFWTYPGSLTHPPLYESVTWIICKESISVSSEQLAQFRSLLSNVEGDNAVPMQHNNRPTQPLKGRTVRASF

- Ki (Carbonic anhydrase 9): 100 nM
- Ki (Carbonic anhydrase 1): > 20000 nM
- Ki (Carbonic anhydrase 12): 650 nM
SMILES: O=C1NS(=O)(=O)c2ccccc21 [SACCHARIN]
